We go through six compounds from US6506550B1, “Method of including apoptosis by reducing the level of thiamin” (Brandeis University, priority 1997, dated 2003).

Series [1] has as its system rat glioma C6 cells. As to the kind of experiment: Induction of apoptosis in rat glioma C6 cells. Type of series: cell-based. The settings on record: for concentration active in inducing apoptosis: in vitro.
Series [2] relates to advanced ovarian cancer. The settings on record: cited from earlier work.
Series [3] relates to Walker's sarcoma. To be noted: rats; cited from earlier work.
For series [4] the following is noted: in vivo; cited from earlier work.
For series [5] the following is noted: estimated (Woolley and White, 1943); cited from earlier work.
The conditions of series [6]: extremely high doses; cited from earlier work.
The conditions of series [7]: cited from earlier work.
Series [8] deals with mice. The settings on record: cited from earlier work.
The conditions of series [9]: room temperature; cited from earlier work.

“Also recorded” adds a separate entry of the source. Read-outs that look alike come from different tables or passages of the source.

For `CCCc1ncc(C[n+]2ccccc2C)c(N)n1` [Amprolium], in series [1], the “concentration active in inducing apoptosis” value was at least 0.6 mM.

Turning to `Cc1nc(N)cc(Cl)n1` [CMP, 4-Amino-6-chloro-2-methylpyrimidine], the “induction of apoptosis by Naegleria agent pretreated with CMP” value in series [1] (CMP 2.5, 5, 10 mM, 16 h 25 °C, extract diluted to 10^−5, assay day 6 (FIG. 3)) is “prevented the induction of apoptosis; also recorded: did not induce apoptosis”.

On to `N.N.[Cl][Pt][Cl]` [cisplatin], for which the survival in series [2] (intraperitoneal injection) is given as 49 months; in series [2] (intravenous injection) it was 41 months.

For the compound `Cc1ncc(C[n+]2csc(CCO)c2C)c(=O)[nH]1` [oxythiamin], the “decrease in growth of Walker's sarcoma” value in series [3] is reported as 45%. Besides, in series [4], the “passage of the blood-brain barrier” value is reported as “do not pass”.

On to `Cc1ncc(C[n+]2cccc(CCO)c2C)c(N)n1` [pyrithiamin], for which the “concentration active in inducing apoptosis” value in [1] was at least 0.01 mM. Besides, the “passage of the blood-brain barrier” value in series [4] is “does”. Further, in [5], the “molecules required to nullify one molecule of thiamin” value is recorded as “about 40 molecules”.

Consider `Cc1ncc(C[n+]2csc(CCO)c2C)c(N)n1` [thiamin], for which the “blood level causing respiratory paralysis” value in [6] is ≥ 70 mg of thiamin per liter of blood. In addition, the “half-life in the body” value in series [7] (in vivo) is 220 to 432 h. Also, in series [7] (oral, humans, excess excreted in urine and feces), the “oral amount above which thiamin is not absorbed” value is recorded as 3-10 mg per dose. For the same compound, in [8] (mice that could no longer stand upright), the “time to improvement after thiamin” value is on record as “one”. The “time to no discernible symptoms after thiamin” value in series [8] (mouse, in vivo) is at most 20 h. Moreover, in series [1] (Naegleria agent at dilution 10^−5, control medium 199), the “excess thiamin concentration that prevented induction of apoptosis by freshly added agent” value is reported as 0.5-2 mg per liter. Further, the “pH at which the methylene bridge is easily cleaved” value in series [9] is at least 9 pH.
